Patent US5216175A, “Antimalarial analogs of artemisinin” (SRI International, priority 1990, dated 1993)
In brackets after ≈: the same amount, converted by molar mass. Read-outs that look alike come from different tables or passages of the source.

Columns and labels:
[1] = test system: P. falciparum W-2 clone; experiment: In vitro antimalarial activity, P. falciparum W-2 clone; format: cell-based; settings: for IC50: Plasmodium falciparum; for times as potent as QHS against the W-2 clone: relative to QHS
Description: (§1) The analogs have been segregated arbitrarily here into those compounds in which the tetracyclic skeleton is intact (Table 2) and various ring-cleaved analogs (Table 3). The activities of the conventional malaria therapeutics chloroquine, mefloquine, and pyrimethamine is included for comparison.

[2] = test system: P. falciparum D-6 clone; experiment: In vitro antimalarial activity, P. falciparum D-6 clone; format: cell-based; settings: for IC50: Plasmodium falciparum; for times as potent as QHS against the D-6 clone: relative to QHS
Description: as §1

[3] = Table 2, W-2 clone, drug-resistant strains of P. falciparum, read-out: IC50 W-2 clone
[4] = Table 2, W-2 clone, drawing 57 (artemisinin) = 100
[5] = Table 2, D-6 clone, drug-resistant strains of P. falciparum, read-out: IC50 D-6 clone
[6] = Table 2, D-6 clone, drawing 57 (artemisinin) = 100
[7] = Table 3, tricyclic analogs, W-2 clone
[8] = Table 3, tricyclic analogs, D-6 clone

Row | SMILES | IC50 [1, 3] [ng/mL] | IC50 [2, 5] [ng/mL] | Relative potency (W-2 clone) [1, 4] | Relative potency (D-6 clone) [2, 6] | further results
1 | C[C@@H]1CC[C@H]2[C@@H](CCCc3ccccc3)C(=O)O[C@@H]3O[C@@]4(C)CC[C@@H]1[C@]32OO4 [compound 2821] | 0.11 (≈ 0.285 nM) | 0.09 (≈ 0.233 nM) | 445 | 611 | 
2 | CC1C(=O)OC(O[Si](C)(C)C(C)(C)C)C2(OO)CCCCC12 (centres unmarked) [compound 4581] |  |  |  |  | IC50 ([1]; read-out: In vitro IC50 W-2 clone): 2890 ng/mL (≈ 8750 nM); Relative potency (W-2 clone) [1, 7]: 0; IC50 ([2]; read-out: In vitro IC50 D-6 clone): 3020 ng/mL (≈ 9130 nM); Relative potency (D-6 clone) [2, 8]: 0
3 | C[C@@H]1CC[C@H]2CC(=O)O[C@@H]3O[C@@]4(C)CC[C@@H]1[C@@]23OO4 [compound 4584] | 0.31 (≈ 1.16 nM) | 2.32 (≈ 8.65 nM) | 650 | 180 | 
4 | C[C@H]1[C@@H](OOC(C)(C)C)O[C@@H]2O[C@@]3(C)CC[C@H]4[C@H](C)CC[C@@H]1[C@@]24OO3 [compound 4588] | 0.41 (≈ 1.15 nM) | 0.53 (≈ 1.49 nM) | 656 | 1054 | 
5 | C[C@@H]1CC[C@H]2[C@@H](CC(=O)O)C(=O)O[C@@H]3O[C@@]4(C)CC[C@@H]1[C@]32OO4 [compound 4595] | 151 (≈ 463 nM) | 830 (≈ 2540 nM) | 0.3 | 0.15 | 
6 | CCC(=O)OCC(CC)(CC)OOC(C)(C)C [compound 4596, 2-t-Butylperoxy-2-ethylbutyl proprionate] |  |  |  |  | In vitro IC50 W-2 clone [1, 7]: Inactive; In vitro IC50 D-6 clone [2, 8]: Inactive
7 | CCCC(=O)OCC(CC)(CC)OOC(C)(C)C [compound 4597, 2-t-Butylperoxy-2-ethylbutyl Butyrate] |  |  |  |  | In vitro IC50 W-2 clone [1, 7]: Inactive; In vitro IC50 D-6 clone [2, 8]: Inactive
8 | CCO[C@H]1O[C@@H]2O[C@@]3(C)CC[C@H]4[C@H](C)CC[C@@H]([C@H]1CC)[C@@]24OO3 [compound 4598] | 0.18 (≈ 0.551 nM) | 0.22 (≈ 0.674 nM) | 272 | 550 | 

Further lines, with some results ahead:

Row | IC50 [1, 3] [ng/mL] | IC50 [2, 5] [ng/mL] | SMILES | Relative potency (W-2 clone) [1, 4] | Relative potency (D-6 clone) [2, 6] | further results
9 | 63.9 (≈ 138 nM) | 81.3 (≈ 175 nM) | CCCCCCCCCCCCCC[C@H]1C(=O)O[C@@H]2O[C@@]3(C)CC[C@H]4[C@H](C)CC[C@@H]1[C@@]24OO3 [compound 2818] | .0017 | .0017 | 
10 | 0.58 (≈ 1.87 nM) | 0.27 (≈ 0.87 nM) | CC(C)[C@H]1C(=O)O[C@@H]2O[C@@]3(C)CC[C@H]4[C@H](C)CC[C@@H]1[C@@]24OO3 [compound 2820] | 84 | 203 | 
11 | 0.5 (≈ 1.48 nM) | 0.35 (≈ 1.03 nM) | CC(C)CC[C@H]1C(=O)O[C@@H]2O[C@@]3(C)CC[C@H]4[C@H](C)CC[C@@H]1[C@@]24OO3 [compound 2822] | 98 | 157 | 
12 | 0.42 (≈ 1.49 nM) | 2.05 (≈ 7.29 nM) | C[C@@H]1CC[C@H]2CC(=O)N(C)[C@@H]3O[C@@]4(C)CC[C@@H]1[C@@]23OO4 [compound 4585, (-)-Octahydro-3,6,11-trimethyl-3,12-epoxy-12H-pyridino-[4.3-j] 1,2-benzo dioxepin-10(3H)-one] | 502 | 214 | times as potent as QHS against the W-2 clone ([1]; W-2 clone): 5 times; times as potent as QHS against the D-6 clone ([2]; D-6 clone): 21.7 times
13 | 0.18 (≈ 0.607 nM) | 0.72 (≈ 2.43 nM) | CC[C@H]1C(=O)O[C@@H]2O[C@@]3(C)CC[C@H]4[C@H](C)CC[C@@H]1[C@@]24OO3 [compound 4586] | 1226 | 642 | times as potent as QHS against the W-2 clone ([1]; W-2 clone): 11.7 times; times as potent as QHS against the D-6 clone ([2]; D-6 clone): 6.17 times
14 | 0.04 (≈ 0.129 nM) | 0.22 (≈ 0.709 nM) | CCC[C@H]1C(=O)O[C@@H]2O[C@@]3(C)CC[C@H]4[C@H](C)CC[C@@H]1[C@@]24OO3 [compound 4599] | 1225 | 550 | 
